For data set [1], the system named is horse erythrocytes. Put plainly: Hemolytic activity (hemoglobin release from erythrocytes). The data set is classed as cell-based. Particulars: D-amino acid lipopeptides, TRIS buffer pH 7.2, 1 h, 37 °C, relative to melittin, ± confidence interval (α = 0.05). The procedure: The hemolytic activity of the compounds was evaluated by determining hemoglobin release from erythrocyte suspensions of horse blood (5% vol/vol) (Oxoid) as previously described. Blood was centrifuged at 6000 g for 5 min, washed three times with tris(hydroxymethyl)aminomethane (TRIS) buffer (10 mM TRIS, 150 mM NaCl, pH 7.2) and diluted 10 times. Compounds were solubilized in TRIS buffer at 750, 500, 300 and 100 μM and mixed with horse erythrocytes (1:1 v/v). The mixture was incubated under continuous shaking for 1 h at 37 °C. Then, the tubes were centrifuged at 3500 g for 10 min, 80 μL aliquots of the supernatant transferred to 100-well microplates (Bioscreen), diluted with 80 μL water, and the absorbance measured at 540 nm (Bioscreen). Complete hemolysis was obtained by the addition of melittin at 100 μM (Sigma-Aldrich Corporation, Madrid, Spain). The percentage of hemolysis (H) was calculated using the equation: H = 100 × [(Op−Ob)/(Om−Ob)], where Op is the density for a given compound concentration, Ob for the buffer, and Om for the melittin-positive control.

For data set [2], the system named is tobacco leaves. Put plainly: Effect of peptide infiltration on tobacco leaves (lesion size). The data set is classed as in vivo. The note with it: ± confidence interval; for Size of the lesion (mm) 50 µM: 100 µL infiltrated into mesophyll of tobacco leaves. The procedure: The lipopeptides were evaluated for their effect upon infiltration on tobacco leaves as described previously. Peptide solutions of 50, 150 and 250 μM were infiltrated (100 μL) into the mesophylls of fully expanded tobacco leaves. Infiltrations were carried out in a single leaf, and for each peptide and dose, at least three leaves randomly distributed in different plants were infiltrated. Control infiltrations with water (negative control) or melittin (positive control) at the same molar concentration were performed. The appearance of symptoms on the leaves was followed for 48 h after infiltration and measured as a lesion diameter.

Data set [3] relates to horse erythrocytes. Further details: method as in earlier work. Particulars: all-L parent lipopeptides, ± confidence interval (α = 0.05), cited from earlier work.
Data set [4] concerns tobacco leaves. Further details: method as in earlier work. Particulars: all-L parent lipopeptides, ± confidence interval, cited from earlier work.
Where [5] appears, read: D-amino acid lipopeptides, lesion diameter, 48 h, at least three leaves.
Where [6] appears, read: D-amino acid lipopeptides, 100 µL infiltrated into tobacco leaves, lesion diameter, 48 h, at least three leaves.
Setting [7] is: D-amino acid lipopeptides, 250 µM, 100 µL infiltrated into tobacco leaves, lesion diameter, 48 h, at least three leaves.
The mark [8] stands for this setting: Table 2, 250 µM infiltrated into tobacco leaves.

Where two headings read alike, the source gives them in different places. Where a SMILES comes first, the peptide text is derived from it. [ ]: non-standard residue; d: D form. The star is where a group is joined. Lauroyl = CCCCCCCCCCCC(=O)*

`CCCC(=O)NCCCC[C@H](NC(=O)[C@H](CC(C)C)NC(=O)[C@@H](NC(=O)[C@H](CCCCN)NC(=O)[C@H](CCCCN)NC(=O)[C@@H](Cc1ccccc1)NC(=O)[C@H](CC(C)C)NC(=O)[C@H](CCCCN)NC(=O)[C@H](CCCCN)NC(C)=O)[C@@H](C)CC)C(=O)N[C@@H](Cc1ccc(O)cc1)C(=O)N[C@@H](CC(C)C)C(N)=O` [BP499, Ac-KKLfKKILK(COC3H7)YL-NH2]: the “Hemolysis (%) 250 µM” value in the data set with horse erythrocytes [1] turned out to be 11 ± 1%. Also, the “Size of the lesion (mm) 50 µM” value with tobacco leaves [2] (setting [5]) is reported as 6 ± 1 mm. Also, in the data set with tobacco leaves [2] (setting [6]), the “Size of the lesion (mm) 150 µM” value is recorded as 8 ± 2 mm. The “Size of the lesion (mm) 250 µM” value in the data set with tobacco leaves [2] (setting [7]) and in the data set on tobacco leaves [2] (setting [8]) was 8 ± 2 mm in each case.

Consider `CCCCCCCCCCCC(=O)NCCCC[C@H](NC(=O)[C@H](CCCCN)NC(=O)[C@H](CCCCN)NC(C)=O)C(=O)N[C@H](Cc1ccccc1)C(=O)N[C@@H](CCCCN)C(=O)N[C@@H](CCCCN)C(=O)N[C@H](C(=O)N[C@@H](CC(C)C)C(=O)N[C@@H](CCCCN)C(=O)N[C@@H](Cc1ccc(O)cc1)C(=O)N[C@@H](CC(C)C)C(N)=O)[C@@H](C)CC` [BP500, Ac-KKK(COC11H23)fKKILKYL-NH2] (Ac-KKK(Lauroyl)[dF]KKILKYL-NH2), for which the “Hemolysis (%) 150 µM” value in the data set with horse erythrocytes [1] (150 µM) was found to be 71 ± 2%. In the data set on horse erythrocytes [1], the “Hemolysis (%) 250 µM” value turned out to be 71 ± 8%. Moreover, in the data set on tobacco leaves [2] (setting [5]), the “Size of the lesion (mm) 50 µM” value worked out at 3 ± 2 mm. Further, the “Size of the lesion (mm) 150 µM” value in the data set on tobacco leaves [2] (setting [6]) came out at 6 ± 2 mm. Further, the “Size of the lesion (mm) 250 µM” value with tobacco leaves [2] (setting [7]) and in the data set with tobacco leaves [2] (setting [8]) was 9 ± 3 mm each time.

For the compound “Ac-KKLFKKILKK(COC3H7)L-NH2 [BP389, analog of BP475 with all L-amino acids]”, the “Hemolysis (%) 50 µM” value with horse erythrocytes [3] (50 µM) is on record as 9 ± 4%. The “Hemolysis (%) 250 µM” value with horse erythrocytes [3] (250 µM) is recorded as 22 ± 2%. Moreover, in the data set on horse erythrocytes [3] (375 µM), the “Hemolysis (%) 375 µM” value is given as 39 ± 3%. In addition, in the data set with tobacco leaves [4] (50 µM), the “Size of the lesion (mm) 50 µM” value is listed as 4 ± 1 mm. Moreover, in the data set on tobacco leaves [4] (150 µM), the “Size of the lesion (mm) 150 µM” value is recorded as 7 ± 1 mm. Also, in the data set on tobacco leaves [4] (250 µM), the “Size of the lesion (mm) 250 µM” value is 9 ± 3 mm.

The record behind these values is PMC8233901, “D-Amino Acid-Containing Lipopeptides Derived from the Lead Peptide BP100 with Activity against Plant Pathogens” (International Journal of Molecular Sciences, 2021).
